This note sets out measurements from article PMC3901242, “Determining Enzyme Kinetics for Systems Biology with Nuclear Magnetic Resonance Spectroscopy” (Metabolites, 2012).

This assay concerns the target T1, phosphofructokinase (PFK, EC 2.7.1.11) (Escherichia coli, UniProt P0A796).
T1 construct: gene pfkA; native enzyme in whole-cell extract of mid-log micro-aerobic cells (sonication or glass beads), not purified; PFK-1 tetrameric; minor PFK-2 (pfkB) may be present
T1 sequence (P0A796 1-320): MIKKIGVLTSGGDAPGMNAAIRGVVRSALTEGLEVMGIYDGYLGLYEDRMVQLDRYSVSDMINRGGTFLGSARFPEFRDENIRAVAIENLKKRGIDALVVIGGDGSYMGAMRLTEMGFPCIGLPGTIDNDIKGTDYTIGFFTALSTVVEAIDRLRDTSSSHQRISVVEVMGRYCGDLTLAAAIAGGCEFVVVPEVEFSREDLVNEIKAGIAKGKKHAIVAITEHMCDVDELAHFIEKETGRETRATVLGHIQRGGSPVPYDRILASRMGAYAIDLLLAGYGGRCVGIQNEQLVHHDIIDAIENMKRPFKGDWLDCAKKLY
Briefly: […]-NMR progress curves, global fit to irreversible bi-substrate Hill equation with negative allosteric modifier. Format: biochemical. The settings on record: allosteric inhibitor; co-substrates F6P and ATP; PEP 4 and 8 mM initial; 1 mM Mg2+; 100 mM PIPES pH 7.2, 25 °C; cell extract.

Each structure is given as a SMILES string.

As to `C=C(OP(=O)(O)O)C(=O)O` [PEP], the “Fitted parameters ^b” value is given as 0.0863 ± 0.0001 mM.
